Test results from US20040053323A1, “Method of screening inducible nitric oxide synthase activation inhibitor” (priority 2000, published 2004).
Blank lines part the entries; values can stand above or below the molecule they belong to.

Experiments:
[1] = target: T1, iNOS (Mus musculus, UniProt P29477); details: cited from earlier work
T1 sequence (P29477 1-1144): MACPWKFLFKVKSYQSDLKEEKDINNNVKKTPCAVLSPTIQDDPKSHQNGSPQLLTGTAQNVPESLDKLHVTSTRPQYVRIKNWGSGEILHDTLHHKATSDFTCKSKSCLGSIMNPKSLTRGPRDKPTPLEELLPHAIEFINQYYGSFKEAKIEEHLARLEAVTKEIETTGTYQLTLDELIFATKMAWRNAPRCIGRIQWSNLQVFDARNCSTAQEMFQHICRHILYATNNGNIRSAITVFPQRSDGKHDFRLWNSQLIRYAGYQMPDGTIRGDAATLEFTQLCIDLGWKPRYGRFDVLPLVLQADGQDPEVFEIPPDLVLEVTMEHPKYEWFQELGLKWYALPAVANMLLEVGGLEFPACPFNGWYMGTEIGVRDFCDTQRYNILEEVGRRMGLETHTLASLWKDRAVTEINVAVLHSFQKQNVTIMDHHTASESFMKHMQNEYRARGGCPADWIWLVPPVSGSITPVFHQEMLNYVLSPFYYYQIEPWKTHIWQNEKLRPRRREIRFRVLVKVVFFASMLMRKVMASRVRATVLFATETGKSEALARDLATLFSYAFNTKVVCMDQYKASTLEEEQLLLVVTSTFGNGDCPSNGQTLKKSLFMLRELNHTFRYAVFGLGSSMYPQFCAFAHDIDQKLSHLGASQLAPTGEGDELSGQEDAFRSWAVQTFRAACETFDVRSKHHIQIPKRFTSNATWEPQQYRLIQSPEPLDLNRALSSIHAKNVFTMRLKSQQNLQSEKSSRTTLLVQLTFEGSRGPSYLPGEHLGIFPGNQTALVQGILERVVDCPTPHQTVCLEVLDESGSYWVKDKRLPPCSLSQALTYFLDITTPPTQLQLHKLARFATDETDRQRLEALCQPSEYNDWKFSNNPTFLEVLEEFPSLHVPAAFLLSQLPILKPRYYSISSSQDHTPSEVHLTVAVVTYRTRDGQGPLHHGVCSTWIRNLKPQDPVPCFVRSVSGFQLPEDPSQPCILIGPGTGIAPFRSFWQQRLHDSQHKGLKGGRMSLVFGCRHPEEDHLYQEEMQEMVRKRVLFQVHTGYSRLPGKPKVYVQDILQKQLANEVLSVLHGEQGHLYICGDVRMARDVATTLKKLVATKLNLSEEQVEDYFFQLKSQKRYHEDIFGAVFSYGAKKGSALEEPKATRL

[2] = target: T2, ^14C-A-bound protein in RAW cells (Mus musculus, UniProt P29477); assay: Dose dependency of ^14C-A binding activity in LPS/IFN-stimulated RAW264.7 cell extract; type: cell-based; details: RAW264.7 cells, LPS/IFN stimulation
T2 construct: endogenous in cells; host or cells: RAW264.7 mouse macrophage cells stimulated with LPS and IFN-γ
T2 sequence (P29477 1-1144): T1 sequence (P29477 1-1144)
Experimental: (§1) Mouse macrophage derived RAW264.7 cells (Stuehr D. J. Proc. Natl. Acad. Sci. USA. 1991, 88, 7773; Cancer Res. 1987, 47, 5590) were cultured in Dulbecco's Modified Eagle Medium containing 10% FCS (fetal calf serum) , until there were 2 to 4×10^7 cells in each F75 culture flask (Falcon). Then, lipopolysaccharide (LPS) and interferon-γ (IFN) were added to a final concentration of 4 μg/ml and 16 units/ml, respectively, and cultured overnight in a CO2 incubator (37° C.). 0.1% Trypsin (5 mL) was added to the flask in which the cells were cultured, the cells were detached by an incubation at 37° C. for 5 minutes, and then collected by centrifugation. To the collected cells (2,000 rpm, 10 minutes), 600 μL of lysis buffer was added, and freeze thawing was repeated three times to disrupt the cells. The supernatant obtained by centrifugation (15,000 rpm, 15 minutes) was collected and this was the cell extract. […]
(§2) Then, 200 μL of that extract was applied to Superdex 200 HR10/30 (flow rate 0.5 mL/min: Amersham Pharmacia Biotech, Sweden) pre-equilibrated with 25 mM Tris-HCl (pH 8.0) containing 150 mM NaCl to perform gel filtration chromatography. Each of the fractions collected every minute were mixed with 7 mL of Aquasol-2 (Packard, USA), and was then measured with a liquid scintillation counter (FIG. 1). ^14C-A used in this experiment was synthesized as follows.

[3] = target: T1, iNOS; assay: iNOS dimer/monomer detection by gel filtration and anti-iNOS dot blotting of LPS/IFN-stimulated RAW264.7 cell extract; type: cell-based; design: endogenous in cells; host or cells: RAW264.7 mouse macrophage cells stimulated with LPS and IFN-γ; details: RAW264.7 cells, LPS/IFN stimulation, compound A added
Experimental: as §1, with “centrifugation.” for “centrifugation. To the collected cells (2,000 rpm, 10 minutes), 600 μL of lysis buffer was added, and freeze thawing was repeated three times to disrupt the cells. The supernatant obtained by centrifugation (15,000 rpm, 15 minutes) was collected and this was the cell extract.”
as §2
Gel filtration fractions containing compound A binding activity, which were obtained by a method similar to that of Example 2 were analyzed by dot blotting. […]

[4] = target: T3, Δ122-iNOSox (Homo sapiens, UniProt P35228); assay: Binding assay of ^3H-compound A with Δ122-iNOSox (gel filtration mini column, scintillation counting); details: Δ122-iNOSox protein
T3 construct: genes of the oxygenase domain region (amino acids 1 to 526) by PCR; His tag; made in house; host or cells: E. coli, protease-deficient DE3 strain; vector pTrcHis2 (Invitrogen)
T3 sequence (P35228 123-526 limits assumed, stated change not applied): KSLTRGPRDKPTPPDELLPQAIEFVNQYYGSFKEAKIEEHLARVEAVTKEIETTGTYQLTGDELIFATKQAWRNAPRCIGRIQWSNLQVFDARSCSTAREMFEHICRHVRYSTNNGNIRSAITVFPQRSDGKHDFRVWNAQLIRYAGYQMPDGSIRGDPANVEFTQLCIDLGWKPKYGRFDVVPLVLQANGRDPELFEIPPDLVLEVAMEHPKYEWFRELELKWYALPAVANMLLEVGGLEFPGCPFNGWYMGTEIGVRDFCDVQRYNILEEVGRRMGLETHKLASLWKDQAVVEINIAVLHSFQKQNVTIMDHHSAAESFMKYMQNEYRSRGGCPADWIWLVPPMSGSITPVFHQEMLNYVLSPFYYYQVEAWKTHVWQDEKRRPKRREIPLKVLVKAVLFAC
Experimental: A binding assay system for ^3H-compound A (25Ci/mmol) was constructed using Δ122-iNOSox obtained in Example 9. In principle, it is an assay system in which the binding strength of a compound towards iNOS can be analyzed by measuring the amount of ^3H-compound A replaced by various test drugs added to bound Δ122-iNOSox protein and ^3H-compound A (10 nM) . That is, to 100 μL of a Δ122-iNOSox solution that has been diluted to a final concentration of 1 μg/mL with 25 mM Tris-HCl (pH 7.5) containing 150 mM NaCl and 1% CHAPS, 1 μL of 1 μM ^3H-compound A was added and was incubated for 3 hours at 4° C., then the entire amount was applied to a gel filtration mini column for desalting (NICK column; Pharmacia) that was pre-equilibrated with 25 mM Tris-HCl (pH 7.5) containing 150 mM NaCl. Next, 400 μL of the same buffer was added, the eluted solution was mixed with 7 mL of aquasol, and this was measured with a liquid scintillation counter.

[5] = target: the molecule itself; assay: gel filtration (Superdex 200) of RAW264.7 cell extract with dot blot detection; homodimer peak

Molecule: Clc1ccccc1C(c1ccccc1)(c1ccccc1)n1ccnc1 [clotrimazole]
- effect on iNOS enzyme activity and dimerization [1]: interfered not only with enzyme activity of iNOS but also with its dimerization

- Hill coefficient ([4]; Hill plot analysis): 0.971
- Kd ([4]; ^3H-compound A, saturation curve and Scatchard plot): 13.5 nM
Molecule: CN(Cc1cccnc1)C(=O)[C@H](Cc1ccccc1)NC(=O)[C@H](Cc1ccccn1)NC(=O)c1cc2ccccc2o1 [compound A]
- radioactivity of cell extract versus added ^14C-A concentration (saturation) [2]: saturation of radioactivity was confirmed between 10^−6 M and 10^−5 M
- iNOS dimerization (dimer peak in dot blotting of gel filtration fractions) [3]: the peak corresponding to the dimer had clearly disappeared

Molecule: Clc1ccc(COC(Cn2ccnc2)c2ccc(Cl)cc2Cl)c(Cl)c1 (stereo not shown) [miconazole]
- effect on iNOS enzyme activity and dimerization [1]: interfered not only with enzyme activity of iNOS but also with its dimerization

B1: iNOS derived from mice (inducible nitrogen oxide synthase from LPS/IFN-stimulated RAW264.7 cells) (enzyme, mouse, UniProt P29477 1-1144, looked up)
chain: T1 sequence (P29477 1-1144)
notes: Endogenous protein in cell extract and gel filtration fractions; It ran as monomer and dimer peaks without compound A and as monomer only with compound A; also called iNOS protein
- binding result [5]: binds
